System: 521955-158-R2-J5-PDC complex spheroids, viability
Experiment: Anticancer human tumor 521955-158-R2-J5-PDC patient-derived pancreatic carcinoma cell line growth inhibition [RAS]
Settings: for IC50: curve of first compound; for viability, T/C: stronger effect = lower value
In short: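 Multi-cell-type spheroids: tumor cells plus HUVEC endothelial cells and mesenchymal stem cells. RAS-pathway inhibitors were combined with targeted agents, each dosed in half-log steps down from clinical Cmax, or from 10 microM when Cmax was unknown.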

[1] = second compound 0.0316 µM, first compound 0.0316 µM
[2] = second compound 0.0316 µM, first compound 0.1 µM
[3] = second compound 0.0316 µM, first compound 0.316 µM
[4] = second compound 0.0316 µM, first compound 1 µM
[5] = second compound 0.0316 µM, first compound 3.16 µM
[6] = second compound 0.0316 µM, first compound 10 µM
[7] = second compound 0.1 µM, first compound 0.0316 µM
[8] = second compound 0.1 µM, first compound 0.1 µM
[9] = second compound 0.1 µM, first compound 0.316 µM
[10] = second compound 0.1 µM, first compound 1 µM
[11] = second compound 0.1 µM, first compound 3.16 µM
[12] = second compound 0.1 µM, first compound 10 µM
[13] = second compound 0.316 µM, first compound 0.0316 µM
[14] = second compound 0.316 µM, first compound 0.1 µM
[15] = second compound 0.316 µM, first compound 0.316 µM
[16] = second compound 0.316 µM, first compound 1 µM
[17] = second compound 0.316 µM, first compound 3.16 µM
[18] = second compound 0.316 µM, first compound 10 µM
[19] = second compound 1 µM, first compound 0.0316 µM
[20] = second compound 1 µM, first compound 0.1 µM
[21] = second compound 1 µM, first compound 0.316 µM
[22] = second compound 1 µM, first compound 1 µM
[23] = second compound 1 µM, first compound 3.16 µM
[24] = second compound 1 µM, first compound 10 µM
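Note: compound exposure lasted seven days before the viability read.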
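Throughout, for viability, T/C: spheroids also contain HUVEC endothelial cells and mesenchymal stem cells as stroma.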

## NC1c2ccccc2OC12CCN(c1cnc3c(N4CCCc5ncccc54)n[nH]c3n1)CC2 (stereo unspecified) + C#Cc1c(F)ccc2cc(O)cc(-c3ncc4c(N5CC6CCC(C5)N6)nc(OCC56CCCN5CC(F)C6)nc4c3F)c12
Second compound 0.0316 µM
  IC50: < 31.6 nM
Second compound 0.1 µM
  IC50: 35.2 nM
Second compound 0.316 µM
  IC50: < 31.6 nM
Second compound 1 µM
  IC50: < 31.6 nM
Second compound 3.16 µM
  IC50: < 31.6 nM
Second compound 10 µM
  IC50: < 31.6 nM
[1]
  viability, T/C: 49.8%
[2]
  viability, T/C: 38.6%
[3]
  viability, T/C: 32.1%
[4]
  viability, T/C: 19.2%
[5]
  viability, T/C: 16.3%
[6]
  viability, T/C: 9.96%
[7]
  viability, T/C: 50.6%
[8]
  viability, T/C: 42.4%
[9]
  viability, T/C: 26.2%
[10]
  viability, T/C: 16.9%
[11]
  viability, T/C: 14.2%
[12]
  viability, T/C: 10.4%
[13]
  viability, T/C: 44%
[14]
  viability, T/C: 35.5%
[15]
  viability, T/C: 21.9%
[16]
  viability, T/C: 12.9%
[17]
  viability, T/C: 12.2%
[18]
  viability, T/C: 7.43%
[19]
  viability, T/C: 35%
[20]
  viability, T/C: 31.7%
[21]
  viability, T/C: 23.9%
[22]
  viability, T/C: 13.1%
[23]
  viability, T/C: 12.5%
[24]
  viability, T/C: 8.41%
Second compound 3.16 µM, first compound 0.0316 µM
  viability, T/C: 32.1%
Second compound 3.16 µM, first compound 0.1 µM
  viability, T/C: 25.3%
Second compound 3.16 µM, first compound 0.316 µM
  viability, T/C: 17.8%
Second compound 3.16 µM, first compound 1 µM
  viability, T/C: 11.1%
Second compound 3.16 µM, first compound 3.16 µM
  viability, T/C: 5.56%
Second compound 3.16 µM, first compound 10 µM
  viability, T/C: 3.9%
Second compound 10 µM, first compound 0.0316 µM
  viability, T/C: 21.3%
Second compound 10 µM, first compound 0.1 µM
  viability, T/C: 16%
Second compound 10 µM, first compound 0.316 µM
  viability, T/C: 5.5%
Second compound 10 µM, first compound 1 µM
  viability, T/C: 4.22%
Second compound 10 µM, first compound 3.16 µM
  viability, T/C: 3.21%
Second compound 10 µM, first compound 10 µM
  viability, T/C: 1.47%

## CCc1c2c(nc3ccc(O)cc13)-c1cc3c(c(=O)n1C2)COC(=O)[C@]3(O)CC + C=CC(=O)N1CCN(c2nc(OCC3CCCN3C)nc3c(F)c(-c4nc(N)cc(C)c4C(F)(F)F)c(Cl)cc23)C(C)C1
Second compound 0.00316 µM
  IC50: 2.29 nM
Second compound 0.01 µM
  IC50: 2.37 nM
Second compound 0.0316 µM
  IC50: 3.47 nM
Second compound 0.1 µM
  IC50: 2.5 nM
Second compound 0.316 µM
  IC50: 2.21 nM
Second compound 1 µM
  IC50: 2.82 nM
Second compound 0.00316 µM, first compound 0.000949 µM
  viability, T/C: 82.8%
Second compound 0.00316 µM, first compound 0.003 µM
  viability, T/C: 39.5%
Second compound 0.00316 µM, first compound 0.00949 µM
  viability, T/C: 20.3%
Second compound 0.00316 µM, first compound 0.03 µM
  viability, T/C: 7.87%
Second compound 0.00316 µM, first compound 0.0949 µM
  viability, T/C: 6.75%
Second compound 0.00316 µM, first compound 0.3 µM
  viability, T/C: 6.61%
Second compound 0.01 µM, first compound 0.000949 µM
  viability, T/C: 68.7%
Second compound 0.01 µM, first compound 0.003 µM
  viability, T/C: 45.3%
Second compound 0.01 µM, first compound 0.00949 µM
  viability, T/C: 18.4%
Second compound 0.01 µM, first compound 0.03 µM
  viability, T/C: 8.97%
Second compound 0.01 µM, first compound 0.0949 µM
  viability, T/C: 8.82%
Second compound 0.01 µM, first compound 0.3 µM
  viability, T/C: 4.69%
Second compound 0.0316 µM, first compound 0.000949 µM
  viability, T/C: 72.5%
Second compound 0.0316 µM, first compound 0.003 µM
  viability, T/C: 55.2%
Second compound 0.0316 µM, first compound 0.00949 µM
  viability, T/C: 13.7%
Second compound 0.0316 µM, first compound 0.03 µM
  viability, T/C: 11.2%
Second compound 0.0316 µM, first compound 0.0949 µM
  viability, T/C: 8.98%
Second compound 0.0316 µM, first compound 0.3 µM
  viability, T/C: 5.11%
Second compound 0.1 µM, first compound 0.000949 µM
  viability, T/C: 63%
Second compound 0.1 µM, first compound 0.003 µM
  viability, T/C: 47.7%
Second compound 0.1 µM, first compound 0.00949 µM
  viability, T/C: 15.2%
Second compound 0.1 µM, first compound 0.03 µM
  viability, T/C: 9.23%
Second compound 0.1 µM, first compound 0.0949 µM
  viability, T/C: 6.92%
Second compound 0.1 µM, first compound 0.3 µM
  viability, T/C: 5.21%
Second compound 0.316 µM, first compound 0.000949 µM
  viability, T/C: 83.2%
Second compound 0.316 µM, first compound 0.003 µM
  viability, T/C: 38%
Second compound 0.316 µM, first compound 0.00949 µM
  viability, T/C: 13%
Second compound 0.316 µM, first compound 0.03 µM
  viability, T/C: 6.67%
Second compound 0.316 µM, first compound 0.0949 µM
  viability, T/C: 7.68%
Second compound 0.316 µM, first compound 0.3 µM
  viability, T/C: 4.95%
Second compound 1 µM, first compound 0.000949 µM
  viability, T/C: 84.2%
Second compound 1 µM, first compound 0.003 µM
  viability, T/C: 48.2%
Second compound 1 µM, first compound 0.00949 µM
  viability, T/C: 13.4%
Second compound 1 µM, first compound 0.03 µM
  viability, T/C: 9.97%
Second compound 1 µM, first compound 0.0949 µM
  viability, T/C: 6.39%
Second compound 1 µM, first compound 0.3 µM
  viability, T/C: 4.12%

## CC(C)NCC(C(=O)N1CCN(c2ncnc3c2C(C)CC3O)CC1)c1ccc(Cl)cc1 (stereo unspecified) + C=CC(=O)N1CCN(c2nc(OCC3CCCN3C)nc3c(F)c(-c4nc(N)cc(C)c4C(F)(F)F)c(Cl)cc23)C(C)C1
Second compound 0.00316 µM
  IC50: > 10000 nM
Second compound 0.01 µM
  IC50: > 10000 nM
Second compound 0.0316 µM
  IC50: > 10000 nM
Second compound 0.1 µM
  IC50: > 10000 nM
Second compound 0.316 µM
  IC50: > 10000 nM
Second compound 1 µM
  IC50: > 10000 nM
Second compound 0.00316 µM, first compound 0.0316 µM
  viability, T/C: 95.9%
Second compound 0.00316 µM, first compound 0.1 µM
  viability, T/C: 93.2%
Second compound 0.00316 µM, first compound 0.316 µM
  viability, T/C: 99%
Second compound 0.00316 µM, first compound 1 µM
  viability, T/C: 79.7%
Second compound 0.00316 µM, first compound 3.16 µM
  viability, T/C: 66.4%
Second compound 0.00316 µM, first compound 10 µM
  viability, T/C: 54.6%
Second compound 0.01 µM, first compound 0.0316 µM
  viability, T/C: 77%
Second compound 0.01 µM, first compound 0.1 µM
  viability, T/C: 115%
Second compound 0.01 µM, first compound 0.316 µM
  viability, T/C: 95.6%
Second compound 0.01 µM, first compound 1 µM
  viability, T/C: 92.9%
Second compound 0.01 µM, first compound 3.16 µM
  viability, T/C: 69.1%
Second compound 0.01 µM, first compound 10 µM
  viability, T/C: 55%
[1]
  viability, T/C: 84.1%
[2]
  viability, T/C: 101%
[3]
  viability, T/C: 91.8%
[4]
  viability, T/C: 94.7%
[5]
  viability, T/C: 61.2%
[6]
  viability, T/C: 55.1%
[7]
  viability, T/C: 88.7%
[8]
  viability, T/C: 104%
[9]
  viability, T/C: 113%
[10]
  viability, T/C: 89%
[11]
  viability, T/C: 67.1%
[12]
  viability, T/C: 49.6%
[13]
  viability, T/C: 105%
[14]
  viability, T/C: 138%
[15]
  viability, T/C: 92.4%
[16]
  viability, T/C: 72.1%
[17]
  viability, T/C: 59.6%
[18]
  viability, T/C: 49.9%
[19]
  viability, T/C: 103%
[20]
  viability, T/C: 80.2%
[21]
  viability, T/C: 104%
[22]
  viability, T/C: 71.3%
[23]
  viability, T/C: 61.9%
[24]
  viability, T/C: 55.3%
